Test systems include EKVX NSCLC; MDA-MB-231 breast; SNB-75 CNS; M14 melanoma; CAKI-1 renal; HOP-92 NSCLC; TK-10 renal; A549 NSCLC; T-47D breast; K-562 leukemia.
Common to all, as to assay: inhibition of tumour cell growth, NCI panel, 48 h

Values joined by “and” are separate entries in the source; they are usually repeats but may differ in a detail not shown here. Equal entries are not always repeated.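 48-hour exposure; five concentrations; linearly interpolated endpoints. GI50 marks 50% less growth. TGI is the concentration that stops growth completely.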

As for `Cn1c2ccccc2c2[nH]c3ccccc3c(=O)c21`, the TGI in the experiment on EKVX NSCLC, with MDA-MB-231 breast, in the experiment on SNB-75 CNS, with M14 melanoma, in the experiment on CAKI-1 renal and in the experiment with HOP-92 NSCLC was more than 100 µM each time. Further, the TGI with TK-10 renal, in the experiment with A549 NSCLC, in the experiment on T-47D breast and in the experiment with K-562 leukemia was more than 100 µM each time.
Take `CN(C)CC1=Nc2cccc3cccc(c23)N1`: the TGI in the experiment with EKVX NSCLC amounted to 31.7 µM; with MDA-MB-231 breast, 34.7 µM; with SNB-75 CNS it was 30.4 µM; with M14 melanoma, 34.7 µM; with CAKI-1 renal, 38.6 µM; in the experiment with HOP-92 NSCLC, 33.1 µM. The TGI was 32.3 µM in the experiment on TK-10 renal, more than 100 µM in the experiment with A549 NSCLC, 24.6 µM with T-47D breast and 62.3 µM in the experiment with K-562 leukemia.
Turning to `Cc1ccc([N+](=O)[O-])c2c(NCCC[N+](C)(C)[O-])ccnc12`, the TGI in the experiment on EKVX NSCLC, with MDA-MB-231 breast, in the experiment with SNB-75 CNS, in the experiment on M14 melanoma, with CAKI-1 renal and in the experiment on HOP-92 NSCLC was more than 100 µM throughout. Moreover, the TGI in the experiment with TK-10 renal, with A549 NSCLC, in the experiment on T-47D breast and in the experiment on K-562 leukemia was more than 100 µM each time.
As for `CC(=O)n1c(-c2ccc(Cl)c(Cl)c2)cn(-c2ccc(Cl)cc2)c1=O`, the GI50 with EKVX NSCLC was 12.5 µM; in the experiment on MDA-MB-231 breast it was 17.6 µM; in the experiment with SNB-75 CNS, 13.6 µM; in the experiment with M14 melanoma, 27.6 µM; in the experiment with CAKI-1 renal, 20.8 µM; with HOP-92 NSCLC it was 13.9 µM. The GI50 is 18.7 µM with TK-10 renal, 39.3 µM in the experiment with A549 NSCLC, 19.3 µM in the experiment with T-47D breast and 24.1 µM with K-562 leukemia. Besides, the TGI was 34.6 µM in the experiment on EKVX NSCLC; 62.6 µM in the experiment with MDA-MB-231 breast; 31.4 µM in the experiment with SNB-75 CNS; more than 100 µM in the experiment on M14 melanoma; 43.9 µM in the experiment with CAKI-1 renal; 30.2 µM in the experiment on HOP-92 NSCLC. For the same molecule, the TGI with TK-10 renal was 38 µM; with A549 NSCLC, more than 100 µM; with T-47D breast, 49.5 µM; in the experiment on K-562 leukemia it was 80.5 µM.
Regarding `CCCCN(CCCC)CCC(O)c1cc2ccc(C(F)(F)F)cc2c2cc(C(F)(F)F)ccc12` (stereo not given), the GI50 with EKVX NSCLC is 9.3 µM; in the experiment on MDA-MB-231 breast, 1.33 µM; with SNB-75 CNS, 3.46 µM; in the experiment with M14 melanoma it was 1.82 µM; in the experiment with CAKI-1 renal it was 2.61 µM; in the experiment with HOP-92 NSCLC, 1.49 µM. Moreover, the GI50 was 2.28 µM in the experiment on TK-10 renal, 3.12 µM in the experiment on A549 NSCLC, 3.09 µM in the experiment on T-47D breast and 2.06 µM in the experiment with K-562 leukemia. Also, the TGI with EKVX NSCLC worked out at 26.8 µM; in the experiment on MDA-MB-231 breast, 3.16 µM; in the experiment on SNB-75 CNS, 15 µM; in the experiment with M14 melanoma, 3.77 µM; with CAKI-1 renal, 9.01 µM; in the experiment with HOP-92 NSCLC, 4.26 µM. The TGI in the experiment with TK-10 renal was determined as 4.62 µM; in the experiment on A549 NSCLC it was 12.1 µM; in the experiment on T-47D breast, 12.9 µM; with K-562 leukemia, 5.59 µM.
Turning to `CN(C)c1ncnc2c1ccn2C1OC(CO)C(O)C1O` (stereo not given), the GI50 with EKVX NSCLC was 3.98 µM; in the experiment with MDA-MB-231 breast, 1.82 µM; in the experiment on SNB-75 CNS, 1.64 µM; in the experiment with M14 melanoma, 16.1 µM; in the experiment with CAKI-1 renal it was 1.58 µM; in the experiment with HOP-92 NSCLC it was 0.883 µM. The GI50 in the experiment with TK-10 renal is 1.83 µM; in the experiment with A549 NSCLC it was 13.6 µM; in the experiment on T-47D breast, 0.0621 µM; in the experiment with K-562 leukemia it was 1.4 µM. The TGI in the experiment with EKVX NSCLC was more than 92.3 µM; in the experiment with MDA-MB-231 breast, 5.96 µM; in the experiment with SNB-75 CNS, 22.5 µM; in the experiment on M14 melanoma it was more than 100 µM; in the experiment on CAKI-1 renal it was more than 39.8 µM; in the experiment with HOP-92 NSCLC it was 5.64 µM. Further, the TGI in the experiment with TK-10 renal is more than 100 µM; in the experiment with A549 NSCLC, more than 100 µM; in the experiment on T-47D breast, 1.61 µM; with K-562 leukemia, more than 100 µM.
Take `CC1=NN(c2ccccc2)C(=O)C1N=Nc1ccc(S(N)(=O)=O)cc1` (stereo not given): the TGI in the experiment on EKVX NSCLC, with MDA-MB-231 breast, in the experiment with SNB-75 CNS, in the experiment on M14 melanoma, in the experiment with CAKI-1 renal and in the experiment with HOP-92 NSCLC was more than 100 µM throughout. Further, the TGI with TK-10 renal, in the experiment on A549 NSCLC, in the experiment on T-47D breast and with K-562 leukemia was more than 100 µM each time.
Turning to `Nc1cc(-c2ccccc2)n(C(=O)Nc2ccc(Oc3ccccc3)cc2)n1`, the GI50 in the experiment with EKVX NSCLC is more than 100 µM; with MDA-MB-231 breast, 27.3 µM; with M14 melanoma it was more than 100 µM; in the experiment with CAKI-1 renal it was 28.9 µM; in the experiment on HOP-92 NSCLC, 24.2 µM; in the experiment on TK-10 renal it was 69.7 µM. For the same molecule, the GI50 in the experiment with A549 NSCLC is 27.8 µM; in the experiment on T-47D breast, 86.2 µM; in the experiment with K-562 leukemia, more than 100 µM. Further, the TGI in the experiment on EKVX NSCLC is more than 100 µM; with MDA-MB-231 breast it was more than 100 µM; in the experiment on SNB-75 CNS, 3.04 µM; in the experiment with M14 melanoma, more than 100 µM; with CAKI-1 renal, 77.2 µM; in the experiment with HOP-92 NSCLC, more than 100 µM. Further, the TGI with TK-10 renal, with A549 NSCLC, with T-47D breast and in the experiment with K-562 leukemia was more than 100 µM in each case.
On to `COc1cc2nncc(SCc3ccc(Cl)c(Cl)c3)c2cc1OC`, for which the TGI with EKVX NSCLC was more than 100 µM; in the experiment on MDA-MB-231 breast it was more than 100 µM; in the experiment with SNB-75 CNS, 73 µM; in the experiment with M14 melanoma it was more than 100 µM; with CAKI-1 renal, more than 100 µM; in the experiment with HOP-92 NSCLC it was more than 100 µM. Moreover, the TGI in the experiment with TK-10 renal, with A549 NSCLC, with T-47D breast and in the experiment with K-562 leukemia was more than 100 µM throughout.
With `c1ccc2c(CN3CCC(C4CCN(Cc5cccc6ccccc56)CC4)CC3)cccc2c1`, the GI50 is 35.1 µM and > 91.4 µM with EKVX NSCLC; 2.77 µM and > 27.7 µM in the experiment with SNB-75 CNS; 3.7 µM and 34.3 µM in the experiment with CAKI-1 renal. In addition, the TGI is more than 100 µM in the experiment with EKVX NSCLC; more than 74.1 µM in the experiment with MDA-MB-231 breast; 3.59 µM and 3.89 µM in the experiment with M14 melanoma; 21.2 µM and > 100 µM in the experiment with CAKI-1 renal; 12 µM and 32.9 µM with HOP-92 NSCLC; 42.8 µM and > 31.6 µM in the experiment on TK-10 renal. Besides, the results for the TGI in the experiment with A549 NSCLC and with T-47D breast were more than 100 µM and 89.1 µM, respectively.

The values above are taken from PubChem BioAssay (NCI).
